Where a name gives a salt, the structure may show the parent alone. Read-outs that look alike come from different tables or passages of the source.
System: murine neural precursor cells (neurosphere cultures)
Test: HTS of LOPAC library against secondary neurosphere cultures, MTT proliferation assay at 3 μM, day 7 (z score, P value)
Format: cell-based, mouse
[1] = LOPAC library screen at 3 μM, secondary neurosphere cultures, MTT
[2] = LOPAC screen, neurosphere MTT proliferation, 3 μM, day 7
[3] = yes/no: significantly inhibited neurosphere proliferation (P<0.01) in primary screen
[4] = LOPAC library screen, 3 μM, MTT, neurosphere cultures
[5] = LOPAC primary screen, neurosphere MTT proliferation, 3 μM, day 7
[6] = yes/no: significantly inhibited neurosphere proliferation (P<0.01) in the primary screen
[7] = LOPAC library screen, 3 μM, MTT, secondary neurosphere cultures, day 7

CN1C[C@H](C(=O)N[C@]2(C)O[C@@]3(O)[C@@H]4CCCN4C(=O)[C@H](Cc4ccccc4)N3C2=O)C[C@@H]2c3cccc4[nH]cc(c34)C[C@H]21 [Dihydroergotamine methanesulfonate]
Z Score [1]: −0.7795
Z score [2]: −0.779
Activity [3]: no

CC(C)[C@H]1CN[C@H](C(=O)O)[C@H]1CC(=O)O [Dihydrokainic acid]
Z Score: 1.329
Z score [2]: 1.329
Activity [3]: no

C[C@@H]1O[C@@H](O[C@H]2C[C@@H](O)[C@]3(CO)[C@H]4[C@H](O)C[C@]5(C)[C@@H]([C@@H]6COC(=O)C6)CC[C@]5(O)[C@@H]4CC[C@]3(O)C2)[C@H](O)[C@H](O)[C@H]1O [Dihydroouabain]
Z Score: 0.2034
Z score [2]: 0.203
Activity [3]: no

COc1cc(C(=O)OCCCN2CCCN(CCCOC(=O)c3cc(OC)c(OC)c(OC)c3)CC2)cc(OC)c1OC [Dilazep hydrochloride]
Z Score [4]: 0.2448
Z score [2]: 0.245
Activity [3]: no

COc1ccc([C@@H]2Sc3ccccc3N(CCN(C)C)C(=O)[C@@H]2OC(C)=O)cc1 [Diltiazem hydrochloride]
Activity: no
Z Score [4]: 0.5395
Z score [2]: 0.540

CN(C)CCOC(c1ccccc1)c1ccccc1 [Diphenhydramine hydrochloride]
Z Score [4]: 0.8449
Z score [5]: 0.845
Activity [6]: no

CCCN(CCC)CCc1ccc(O)c(O)c1 [Dipropyldopamine hydrobromide]
Z Score: −1.346
Z score [2]: −1.346

OCCN(CCO)c1nc(N2CCCCC2)c2nc(N(CCO)CCO)nc(N3CCCCC3)c2n1 [Dipyridamole]
Activity: no
Z Score [1]: −0.7267
Z score [2]: −0.727

CC(C)N(CCC(C(N)=O)(c1ccccc1)c1ccccn1)C(C)C (stereo not shown) [Disopyramide phosphate]
Z Score [4]: −0.07187
Z score [5]: −0.072
Activity [6]: no

CC(C)N(CCC(C(N)=O)(c1ccccc1)c1ccccn1)C(C)C (stereo not shown) [Disopyramide]
Z Score [7]: −4.179
Z score [5]: −4.179
Activity [6]: yes

CC(CCc1ccc(O)cc1)NCCc1ccc(O)c(O)c1 (stereo not shown) [Dobutamine hydrochloride]
Z Score [4]: 0.3185
Z score [2]: 0.319
Activity [3]: no

O=c1[nH]c2ccccc2n1CCCN1CCC(n2c(=O)[nH]c3cc(Cl)ccc32)CC1 [Domperidone]
Activity: no
Z Score [7]: −1.525
Z score [5]: −1.525

Cl.NCCc1ccc(O)c(O)c1 [Dopamine hydrochloride]
Activity: no
Z Score: 1.352
Z score: 1.352

COc1cc2nc(N3CCN(C(=O)C4COc5ccccc5O4)CC3)nc(N)c2cc1OC (stereo not shown) [Doxazosin mesylate]
Z Score [7]: −1.861
Z score [2]: −1.861
Activity [3]: no

CN(C)CCC=C1c2ccccc2COc2ccccc21 [Doxepin hydrochloride]
Z Score (168 h, 3 µM): −1.012
Z score (168 h, 3 µM): −1.012
Activity [6]: no

C[C@H]1c2cccc(O)c2C(=O)C2=C(O)[C@]3(O)C(=O)C(C(N)=O)=C(O)[C@@H](N(C)C)[C@@H]3[C@@H](O)[C@@H]21 [Doxycycline hydrochloride]
Z Score [1]: −0.5578
Z score [2]: −0.558
Activity [3]: no

CN(C)CCOC(C)(c1ccccc1)c1ccccn1 (stereo not shown) [Doxylamine succinate]
Z Score (LOPAC library screen at 3 μM, MTT, secondary neurosphere cultures, screened in singlets): 1.736
Z score [2]: 1.736
Activity [3]: no

O=C(CCCN1CC=C(n2c(=O)[nH]c3ccccc32)CC1)c1ccc(F)cc1 [Droperidol]
Activity: no
Z Score [4]: 0.6447
Z score [2]: 0.645

COc1c2c(nc3ccccc13)OC(C(C)(O)CO)C2 (stereo not shown) [Dubinidine]
Z Score: −2.437
Z score [5]: −2.437
Activity [6]: yes

CC(C)CC(NC(=O)C1OC1C(=O)O)C(=O)NCCCCNC(=N)N (stereo not shown) [E-64]
Z Score: −1.709
Z score [2]: −1.709
Activity [3]: no

CCCCCCCCCCCCCCCCCCOCC(COP(=O)([O-])OCC[N+](C)(C)C)OC (stereo not shown) [ET-18-OCH3]
Z Score [1]: −0.6259
Z score [2]: −0.626
Activity [3]: no

O=c1c2ccccc2[se]n1-c1ccccc1 [Ebselen]
Z Score [1]: −0.2515
Z score [5]: −0.251

CC[N+](C)(C)c1cccc(O)c1 [Edrophonium chloride]
Z Score: −0.8064
Z score [5]: −0.806
Activity [3]: no

CCC1(C2=NCCN2)Cc2ccccc2O1 (stereo not shown) [Efaroxan hydrochloride]
Z Score [7]: −2.338
Z score [5]: −2.338
Activity [6]: yes

Cc1c2ccncc2c(C)c2c1[nH]c1ccccc12 [Ellipiticine]
Z score [5]: −8.321
Activity (yes = significantly inhibited neurosphere proliferation (P<0.01) in the primary screen): yes

Cc1c2ccncc2c(C)c2c1[nH]c1ccccc12 [Ellipticine]
Z Score [7]: −8.321

CC[C@H]1CN2CCc3cc(OC)c(OC)cc3[C@@H]2C[C@@H]1C[C@H]1NCCc2cc(OC)c(OC)cc21 [Emetine dihydrochloride hydrate]
Activity: yes
Z Score [7]: −10.63
Z score [5]: −10.633

Cc1cc(O)c2c(c1)C(=O)c1cc(O)cc(O)c1C2=O [Emodin]
Z Score (168 h, 3 µM): −0.4835
Z score (168 h, 3 µM): −0.483
Activity [3]: no

O=C(O)[C@@H]1[C@H](C(=O)O)[C@H]2CC[C@@H]1O2 [Endothall]
Z Score: −1.143
Z score [5]: −1.143
Activity [3]: no

CSc1ccc(C(=O)c2[nH]c(=O)[nH]c2C)cc1 [Enoximone]
Z Score [1]: −0.6237
Z score [2]: −0.624
Activity [3]: no

CC(C)C[C@H](NC(=O)[C@H](O)[C@H](N)Cc1ccccc1)C(=O)O [Epibestatin hydrochloride]
Z Score [1]: −0.7869
Z score [2]: −0.787
Activity [3]: no

CC(C)[C@@]1(NC(=O)[C@@H]2C=C3c4cccc5[nH]cc(c45)C[C@H]3N(C)C2)O[C@@]2(O)[C@@H]3CCCN3C(=O)[C@H](Cc3ccccc3)N2C1=O [Ergocristine]
Z Score: 0.4078
Z score [5]: 0.408
Activity [3]: no

C[C@]12CC[C@@H]3c4ccc(O)cc4CC[C@H]3[C@@H]1CCC2=O [Estrone]
Z Score [4]: 0.04081
Z score [5]: 0.041

CCOC(=O)c1cnc2c(cnn2CC)c1NN=C(C)C [Etazolate hydrochloride]
Z Score (168 h, 3 µM): −0.2465
Z score (168 h, 3 µM): −0.247
Activity [3]: no

CCC1(C)CC(=O)NC1=O (stereo not shown) [Ethosuximide]
Z Score [1]: −0.6124
Z score [5]: −0.612
Activity [3]: no

CCc1cccc2c3c([nH]c12)C(CC)(CC(=O)O)OCC3 (stereo not shown) [Etodolac]
Z Score [1]: −0.5582
Z score [2]: −0.558
Activity [3]: no

COC(=O)c1c(C)[nH]c(C)c1C(=O)c1ccccc1Cc1ccccc1 [FPL 64176]
Z Score: −1.099
Z score [5]: −1.099
Activity [3]: no

CCCn1c(=O)c2[nH]c(C3CCCC3)nc2n(CCCOC(=O)c2ccc(S(=O)(=O)F)cc2)c1=O [FSCPX]
Z Score: 0.7825
Z score [5]: 0.782
Activity [3]: no

NC(N)=Nc1nc(CSCCC(N)=NS(N)(=O)=O)cs1 [Famotidine]
Activity: no
Z Score [4]: 0.05489
Z score [5]: 0.055

CC(C)=CCCC(C)=CCCC(C)=CCSc1ccccc1C(=O)O [Farnesylthiosalicylic acid]
Z Score [4]: 0.9061
Z score [5]: 0.906
Activity [3]: no

NC(=O)OCC(COC(N)=O)c1ccccc1 [Felbamate]
Z Score [1]: −0.4586
Z score [5]: −0.459
Activity [3]: no

CCOC(=O)C1=C(C)NC(C)=C(C(=O)OC)C1c1cccc(Cl)c1Cl (stereo not shown) [Felodipine]
Z Score [1]: −0.9658
Z score [5]: −0.966

CC(C)OC(=O)C(C)(C)Oc1ccc(C(=O)c2ccc(Cl)cc2)cc1 [Fenofibrate]
Z Score [7]: −2.116
Z score [5]: −2.116

Oc1ccc(C2CNCCc3c2cc(O)c(O)c3Cl)cc1 (stereo not shown) [Fenoldopam bromide]
Z Score [4]: 0.05219
Z score [5]: 0.052
Activity [3]: no

CC(Cc1ccc(O)cc1)NCC(O)c1cc(O)cc(O)c1 (stereo not shown) [Fenoterol hydrobromide]
Z Score: −1.841
Z score [5]: −1.841
Activity [3]: no

O=C1NCC2(CCN(CCc3ccccc3)CC2)O1 [Fenspiride hydrochloride]
Z Score [1]: −0.5762
Z score [5]: −0.576
Activity [3]: no

CC(C)(C(=O)O)c1ccc(C(O)CCCN2CCC(C(O)(c3ccccc3)c3ccccc3)CC2)cc1 (stereo not shown) [Fexofenadine hydrochloride]
Activity: no
Z Score [1]: −0.7572
Z score [5]: −0.757

COc1cccc2c1[C@@H]1CN(CCCCn3c(=O)[nH]c4c(sc5ncc(-c6ccccc6)nc54)c3=O)C[C@@H]1CO2 [Fiduxosin hydrochloride]
Z Score [4]: 0.2005
Z score [5]: 0.200
Activity [3]: no

CC(=O)O.O=C(NCC1CCCCN1)c1cc(OCC(F)(F)F)ccc1OCC(F)(F)F (stereo not shown) [Flecainide acelate]
Activity: no
Z score [5]: −1.498

O=C(NCC1CCCCN1)c1cc(OCC(F)(F)F)ccc1OCC(F)(F)F (stereo not shown) [Flecainide acetate]
Z Score [7]: −1.498

CCOC(=O)c1ncn2c1CN(C)C(=O)c1cc(F)ccc1-2 [Flumazenil]
Activity: no
Z Score [1]: −0.3664
Z score [5]: −0.366

Fc1ccc(C(c2ccc(F)cc2)N2CCN(C/C=C/c3ccccc3)CC2)cc1 [Flunarizine dihydrochloride]
Z Score [4]: 0.3954
Z score [5]: 0.395
Activity [3]: no

CNCCC(Oc1ccc(C(F)(F)F)cc1)c1ccccc1 (stereo not shown) [Fluoxetine hydrochloride]
Activity: no
Z Score [7]: −1.311
Z score [5]: −1.311

From patent publication US8058243B2, “Method for treating a brain cancer with ifenprodil” (HSC Research and Development Limited Partnership, priority 2006, dated 2011)
